Measured values: PMC3431846, “2,3-Dihydro-1H-cyclopenta[b]quinoline Derivatives as Acetylcholinesterase Inhibitors—Synthesis, Radiolabeling and Biodistribution” (International Journal of Molecular Sciences, 2012)
Counter-ions that a name gives are not always drawn.

Experiments:
[1] = test system: acetylcholinesterase; conditions: in words; cited from earlier work
[2] = molecular target: Acetylcholinesterase from Electrophorus electricus (electric eel) (Electrophorus electricus, UniProt O42275); assay: biochemical
Acetylcholinesterase from Electrophorus electricus (electric eel), sequence (O42275 24-633): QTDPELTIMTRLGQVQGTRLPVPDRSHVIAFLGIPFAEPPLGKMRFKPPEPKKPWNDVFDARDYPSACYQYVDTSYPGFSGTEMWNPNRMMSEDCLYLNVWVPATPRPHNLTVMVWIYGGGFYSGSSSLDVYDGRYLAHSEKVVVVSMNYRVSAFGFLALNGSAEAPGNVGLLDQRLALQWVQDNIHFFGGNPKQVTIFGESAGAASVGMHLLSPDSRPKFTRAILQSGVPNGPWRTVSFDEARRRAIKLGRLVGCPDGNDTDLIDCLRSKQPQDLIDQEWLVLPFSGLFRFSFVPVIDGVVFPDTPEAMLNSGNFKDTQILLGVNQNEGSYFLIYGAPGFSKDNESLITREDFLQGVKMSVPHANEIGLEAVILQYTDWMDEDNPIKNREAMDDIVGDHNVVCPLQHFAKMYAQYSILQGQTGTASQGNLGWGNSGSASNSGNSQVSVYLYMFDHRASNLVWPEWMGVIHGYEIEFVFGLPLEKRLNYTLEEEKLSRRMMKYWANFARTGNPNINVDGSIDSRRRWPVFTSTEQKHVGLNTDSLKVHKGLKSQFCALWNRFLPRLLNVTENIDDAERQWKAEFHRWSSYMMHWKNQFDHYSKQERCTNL

[3] = molecular target: Butyrylcholinesterase from equine serum (Equus caballus, UniProt P81908); assay: biochemical
Butyrylcholinesterase from equine serum, sequence (P81908 whole entry): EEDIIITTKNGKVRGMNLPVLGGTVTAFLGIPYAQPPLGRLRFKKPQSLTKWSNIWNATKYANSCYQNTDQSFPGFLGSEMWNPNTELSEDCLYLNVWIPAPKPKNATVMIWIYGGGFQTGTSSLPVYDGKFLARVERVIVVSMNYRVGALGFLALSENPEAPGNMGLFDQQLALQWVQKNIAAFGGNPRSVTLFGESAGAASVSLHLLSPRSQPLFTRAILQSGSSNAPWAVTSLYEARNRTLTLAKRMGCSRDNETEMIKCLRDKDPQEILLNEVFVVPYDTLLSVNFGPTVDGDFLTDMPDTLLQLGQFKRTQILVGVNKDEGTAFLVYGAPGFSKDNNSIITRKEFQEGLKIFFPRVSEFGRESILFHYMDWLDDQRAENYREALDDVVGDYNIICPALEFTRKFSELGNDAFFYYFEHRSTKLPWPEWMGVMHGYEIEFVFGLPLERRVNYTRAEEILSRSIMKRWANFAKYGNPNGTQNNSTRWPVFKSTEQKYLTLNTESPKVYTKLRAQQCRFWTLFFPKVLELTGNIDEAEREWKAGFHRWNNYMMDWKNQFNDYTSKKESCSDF

[4] = Biodistribution of radioactivity in rats after intravenous 99mTc-6a; conditions: 99mTc-labelled, in words
Description: For biodistribution studies, male Wistar rats weighing 190–260 g were used. Prior to the experiment, the animals were fasted overnight (to empty the bowels), but had free access to water. All animal experiments were approved by the Ethics Committee of the Faculty of Pharmacy, Charles University, Hradec Kralove.
The agent was administered to rats intravenously in a volume of 0.2 mL. During the course of the experiments, each animal was placed in an individual cage. At various time points after injection, the carotid artery was exposed under ether anesthesia and a blood sample was collected in glass tubes containing dry heparin. The rats were sacrificed and dissected.
The results were expressed as mean ± standard deviations of at least four animals.

For `Nc1c2c(nc3cc(Cl)ccc13)CCCC2O` (stereo not shown) [6-chlorotacrin-1-ol], the “potency compared with tacrine” value [1] is listed as “more potent than tacrine”.

In the case of `Nc1c2c(nc3cc(F)ccc13)CCCC2O` (stereo not shown) [6-fluorotacrin-1-ol], the “potency compared with tacrine” value [1] is listed as “more potent than tacrine”.

With `Cl.NNc1ccc(C(=O)NCCNc2c3c(nc4ccccc24)CCC3)cn1` [Compound 6a, 6-Hydrazino-N-[2-(2,3-dihydro-1H-cyclopenta[b]quinolin-9-ylamino)Ethyl]nicotinamide hydrochloride] the IC50 [2] was 31.5 ± 1.9 nM, the IC50 [3] was 0.164 ± 0.0016 µM and the blood radioactivity clearance [4] was “comparatively rapid”.

For `NNc1ccc(C(=O)NCCCNc2c3c(nc4ccccc24)CCC3)cn1` [Compound 6b, 6-Hydrazino-N-[3-(2,3-dihydro-1H-cyclopenta[b]quinolin-9-ylamino)propyl]nicotinamide hydrochloride], the IC50 [2] was 19.3 ± 1.1 nM and the IC50 [3] was 0.197 ± 0.0034 µM.

Compound `NNc1ccc(C(=O)NCCCCNc2c3c(nc4ccccc24)CCC3)cn1` [Compound 6c, 6-Hydrazino-N-[4-(2,3-dihydro-1H-cyclopenta[b]quinolin-9-ylamino)butyl]nicotinamide hydrochloride] has an IC50 [2] of 22.4 ± 1.7 nM and an IC50 [3] of 2.65 ± 0.0095 µM.

`NNc1ccc(C(=O)NCCCCCNc2c3c(nc4ccccc24)CCC3)cn1` [Compound 6d, 6-Hydrazino-N-[5-(2,3-dihydro-1H-cyclopenta[b]quinolin-9-ylamino)pentyl]nicotinamide hydrochloride] gave an IC50 [2] of 7.84 ± 2.2 nM and an IC50 [3] of 4.24 ± 0.0022 µM.

With `NNc1ccc(C(=O)NCCCCCCNc2c3c(nc4ccccc24)CCC3)cn1` [Compound 6e, 6-Hydrazino-N-[6-(2,3-dihydro-1H-cyclopenta[b]quinolin-9-ylamino)hexyl]nicotinamide hydrochloride] the IC50 [2] was 41.6 ± 1 nM and the IC50 [3] was 16.6 ± 0.0175 µM.

Work on `NNc1ccc(C(=O)NCCCCCCCNc2c3c(nc4ccccc24)CCC3)cn1` [Compound 6f, 6-Hydrazino-N-[7-(2,3-dihydro-1H-cyclopenta[b]quinolin-9-ylamino)heptyl]nicotinamide hydrochloride] yielded an IC50 [2] of 17.6 ± 0.8 nM and an IC50 [3] of 22.7 ± 0.0206 µM.

Compound `NNc1ccc(C(=O)NCCCCCCCCNc2c3c(nc4ccccc24)CCC3)cn1` [Compound 6g, 6-Hydrazino-N-[8-(2,3-dihydro-1H-cyclopenta[b]quinolin-9-ylamino)octyl]nicotinamide hydrochloride] has an IC50 [2] of 5.17 ± 1.4 nM and an IC50 [3] of 19.6 ± 0.0164 µM.

For `NNc1ccc(C(=O)NCCCCCCCCCNc2c3c(nc4ccccc24)CCC3)cn1` [Compound 6h, 6-Hydrazino-N-[9-(2,3-dihydro-1H-cyclopenta[b]quinolin-9-ylamino)nonyl]nicotinamide hydrochloride], the IC50 [2] was 3.65 ± 0.5 nM and the IC50 [3] was 17.1 ± 0.0213 µM.
